One may read the IC50 as the point on the concentration scale where inhibition reaches its midpoint.

Numbered stars: 1 amine (or outer) side, 2 acyl side, 3 side chain; on linkers, the order of the positions; unused ones are H or OH. Bridge positions count the residues as written; N and C are the ends. Square brackets hold non-standard residues; d marks the D form. Peptide text beside a SMILES is read from it. * marks the point of attachment. X46 = COCc1ccc(-c2ccc(C[C@H](N[*:1])C(=O)[*:2])cc2)cc1; Phe(4-COOH) = N[C@@H](Cc1ccc(C(=O)O)cc1)C(=O)O; Bip = N[C@@H](Cc1ccc(-c2ccccc2)cc1)C(=O)O; Phe(3-Me) = Cc1cccc(C[C@H](N)C(=O)O)c1; Val(3-OH) = CC(C)(O)[C@H](N)C(=O)O; h4Pal = N[C@@H](CCc1ccncc1)C(=O)O; 3Pal = N[C@@H](Cc1cccnc1)C(=O)O; Cha = N[C@@H](CC1CCCCC1)C(=O)O; Cit = NC(=O)NCCC[C@H](N)C(=O)O; dCha = N[C@H](CC1CCCCC1)C(=O)O; hSer = N[C@@H](CCO)C(=O)O; Carboxymethyl = O=C(O)C*; NMeA = CN[C@@H](C)C(=O)O; Pra = C#CC[C@H](N)C(=O)O; Dab = NCC[C@H](N)C(=O)O

For the test, the target named is T1, PE-labeled human PD-L1-Ig binding to Jurkat cell line over-expressing human PD-1 (Jurkat-PD-1) (Homo sapiens, UniProt Q15116).
T1 construct: expressed in transfected cells; host or cells: Jurkat
T1 sequence (Q15116 25-288): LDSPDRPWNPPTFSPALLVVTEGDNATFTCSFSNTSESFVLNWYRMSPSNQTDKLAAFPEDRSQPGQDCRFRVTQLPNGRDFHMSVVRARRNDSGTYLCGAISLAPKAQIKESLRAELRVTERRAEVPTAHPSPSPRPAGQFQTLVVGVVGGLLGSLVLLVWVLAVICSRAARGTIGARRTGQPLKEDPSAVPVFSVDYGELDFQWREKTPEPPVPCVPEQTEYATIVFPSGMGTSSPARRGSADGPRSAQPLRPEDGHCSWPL
The experiment in a line: Jurkat-PD-1 Cell Binding High-Content Screening Assay (CBA): Method 1. The conditions noted are these: Jurkat-hPD-1 cells, PE-labeled PD-L1-Ig 20 nM final; read-out: Jurkat HPDL1 PD1 IC50 (uM) (Method 1).
For `COCc1ccc(-c2ccc(C[C@@H]3NC(=O)[C@H](C(C)C)NC(=O)[C@H](Cc4c[nH]c5ccccc45)NC(=O)[C@H](CC(=O)O)NC(=O)[C@H](Cc4ccc(O)cc4)NC(=O)[C@H](CC(N)=O)NC(=O)CSC[C@@H](C(=O)N[C@@H](C)C(N)=O)NC(=O)[C@H]([C@@H](C)O)NC(=O)[C@H](C(C)C)NC(=O)[C@H](CC(C)C)NC(=O)[C@H](CCN)NC(=O)[C@@H](CC(C)C)NC(=O)[C@H](C)N(C)C(=O)[C@H](CCCNC(=N)N)NC3=O)cc2)cc1` [Compound 1205] ({CH2CO}-NYDWV[X46]R[NMeA][dL][Dab]LVTCA-NH2; thioether N-14), the IC50 came to 0.81 µM.
As for `CC(C)C[C@@H]1NC(=O)[C@H](Cc2c[nH]c3ccccc23)NC(=O)[C@H](CC(=O)O)NC(=O)[C@H](Cc2ccc(O)cc2)NC(=O)[C@H](Cc2ccccc2)NC(=O)CSC[C@@H](C(=O)NCC(N)=O)NC(=O)[C@H](CO)NC(=O)[C@H](C(C)C)NC(=O)[C@H](CC(C)C)NC(=O)[C@H](CC(N)=O)NC(=O)[C@H](CCO)NC(=O)[C@H](C)N(C)C(=O)[C@H](C(C)C)NC(=O)[C@H](Cc2ccc(-c3ccccc3)cc2)NC1=O` [Compound 1814] ({CH2CO}-FYDWL[Bip]V[NMeA][hSer]NLVSCG-NH2; thioether N-14), the IC50 is 0.3 µM.
For `CC(C)C[C@@H]1NC(=O)[C@H](CCN)NC(=O)[C@@H](CC(C)C)NC(=O)[C@H](C)N(C)C(=O)[C@H](C(C)C)NC(=O)[C@H](Cc2ccc(-c3ccccc3)cc2)NC(=O)[C@H](C(C)C)NC(=O)[C@H](Cc2c[nH]c3ccccc23)NC(=O)[C@H](CC(=O)O)NC(=O)[C@H](Cc2ccc(O)cc2)NC(=O)[C@H](CCN)NC(=O)CSC[C@@H](C(=O)N[C@@H](C)C(N)=O)NC(=O)[C@H]([C@@H](C)O)NC(=O)[C@H](C(C)C)NC1=O` [Compound 1361] ({CH2CO}-[Dab]YDWV[Bip]V[NMeA][dL][Dab]LVTCA-NH2; thioether N-14), the IC50 turned out to be 0.01 µM.
As for `CC(C)C[C@@H]1NC(=O)[C@H](CCCNC(=N)N)NC(=O)[C@@H](CC2CCCCC2)NC(=O)[C@H](C)N(C)C(=O)[C@H](CCCNC(=N)N)NC(=O)[C@H](Cc2ccc(-c3ccccc3)cc2)NC(=O)[C@H](C(C)C)NC(=O)[C@H](Cc2c[nH]c3ccccc23)NC(=O)[C@H](CC(=O)O)NC(=O)[C@H](Cc2ccc(O)cc2)NC(=O)[C@H](Cc2ccccc2)NC(=O)CSC[C@@H](C(=O)N[C@@H](C)C(N)=O)NC(=O)[C@H]([C@@H](C)O)NC(=O)[C@H](C(C)C)NC1=O` [Compound 1076] ({CH2CO}-FYDWV[Bip]R[NMeA][dCha]RLVTCA-NH2; thioether N-14), the IC50 is 0.05 µM.
As for `CC[C@H](C)[C@@H]1NC(=O)[C@H](Cc2ccc(-c3ccccc3)cc2)NC(=O)[C@H](C(C)C)NC(=O)[C@H](Cc2cccc(C)c2)NC(=O)[C@H](CC(=O)O)NC(=O)[C@H](Cc2ccc(O)cc2)NC(=O)[C@H](CC(N)=O)NC(=O)CSC[C@@H](C(=O)N[C@H](C)C(N)=O)NC(=O)[C@H]([C@@H](C)O)NC(=O)[C@H](C(C)(C)O)NC(=O)[C@H](CC2CCCCC2)NC(=O)[C@H](CCN)NC(=O)[C@@H](CC(C)C)NC(=O)[C@H](C)N(C)C1=O` [Compound 1690] ({CH2CO}-NYD[Phe(3-Me)]V[Bip]I[NMeA][dL][Dab][Cha][Val(3-OH)]TC[dA]-NH2; thioether N-14), the IC50 came out at 0.01 µM.
For `CC(C)C[C@@H]1NC(=O)[C@H](CCN)NC(=O)[C@@H](CC(C)C)NC(=O)[C@H](C)N(C)C(=O)[C@H](CCCNC(N)=O)NC(=O)[C@H](Cc2ccc(-c3ccccc3)cc2)NC(=O)[C@H](C(C)C)NC(=O)[C@H](Cc2c[nH]c3ccccc23)NC(=O)[C@H](CC(=O)O)NC(=O)[C@H](Cc2ccc(OCC(=O)O)cc2)NC(=O)[C@H](Cc2cccnc2)NC(=O)CSC[C@@H](C(=O)N[C@@H](C)C(N)=O)NC(=O)[C@H]([C@@H](C)O)NC(=O)[C@H](C(C)C)NC1=O` [Compound 1331] ({CH2CO}-[3Pal]Y(Carboxymethyl)DWV[Bip][Cit][NMeA][dL][Dab]LVTCA-NH2; thioether N-14) the value was 0.01 µM.
For `CC(C)C[C@@H]1NC(=O)[C@H](CCN)NC(=O)[C@@H](CC(C)C)NC(=O)[C@H](C)N(C)C(=O)[C@H](CCCNC(=N)N)NC(=O)[C@H](Cc2ccc(-c3ccccc3)cc2)NC(=O)[C@H](C(C)C)NC(=O)[C@H](Cc2c[nH]c3ccccc23)NC(=O)[C@H](CC(=O)O)NC(=O)[C@H](Cc2cnc[nH]2)NC(=O)[C@H](Cc2cccnc2)NC(=O)CSC[C@@H](C(=O)N[C@@H](C)C(N)=O)NC(=O)[C@H]([C@@H](C)O)NC(=O)[C@H](C(C)C)NC1=O` [Compound 1157] ({CH2CO}-[3Pal]HDWV[Bip]R[NMeA][dL][Dab]LVTCA-NH2; thioether N-14) the value was 0.11 µM.
Take `CC(C)C[C@@H]1NC(=O)[C@H](CCN)NC(=O)[C@@H](CC(C)C)NC(=O)[C@H](C)N(C)C(=O)[C@H](CCCNC(=N)N)NC(=O)[C@H](Cc2ccc(-c3ccccc3)cc2)NC(=O)[C@H](C(C)C)NC(=O)[C@H](Cc2c[nH]c3ccccc23)NC(=O)[C@H](CC(=O)O)NC(=O)[C@H](CCc2ccncc2)NC(=O)[C@H](CC(N)=O)NC(=O)CSC[C@@H](C(=O)N[C@@H](C)C(N)=O)NC(=O)[C@H]([C@@H](C)O)NC(=O)[C@H](C(C)C)NC1=O` [Compound 1352] ({CH2CO}-N[h4Pal]DWV[Bip]R[NMeA][dL][Dab]LVTCA-NH2; thioether N-14): the IC50 stood at 0.01 µM.
Consider `CC(C)C[C@@H]1NC(=O)[C@H](CCCNC(=N)N)NC(=O)[C@@H](CC(C)C)NC(=O)[C@H](C)N(C)C(=O)[C@H](CCCNC(=N)N)NC(=O)[C@H](Cc2ccc(-c3ccccc3)cc2)NC(=O)[C@H](C(C)C)NC(=O)[C@H](Cc2c[nH]c3ccccc23)NC(=O)[C@H](CC(=O)O)NC(=O)[C@H](Cc2ccc(O)cc2)NC(=O)[C@H](CC(N)=O)NC(=O)CSC[C@@H](C(=O)NCC(N)=O)NC(=O)[C@H](CO)NC(=O)[C@H](C(C)C)NC1=O` [Compound 1253] ({CH2CO}-NYDWV[Bip]R[NMeA][dL]RLVSCG-NH2; thioether N-14), for which the IC50 is 0.03 µM.
For `C#CC[C@H](NC(=O)CNC(=O)[C@@H]1CSCC(=O)N[C@@H](Cc2ccc(OCC(=O)O)cc2)C(=O)N[C@@H](Cc2ccc(C(=O)O)cc2)C(=O)N[C@@H](CC(=O)O)C(=O)N[C@@H](Cc2c[nH]c3ccccc23)C(=O)N[C@@H](CC(C)C)C(=O)N[C@@H](Cc2ccc(-c3ccccc3)cc2)C(=O)N[C@@H](C(C)C)C(=O)N(C)[C@@H](C)C(=O)N[C@H](CC(C)C)C(=O)N[C@@H](CCN)C(=O)N[C@@H](CC2CCCCC2)C(=O)N[C@@H](C(C)C)C(=O)N[C@@H](CO)C(=O)N1)C(=O)O` [Compound 1934] ({CH2CO}-Y(Carboxymethyl)[Phe(4-COOH)]DWL[Bip]V[NMeA][dL][Dab][Cha]VSCG[Pra]-OH; thioether N-14) the value was 0.01 µM.
For `CC(C)C[C@@H]1NC(=O)[C@H](CCCNC(=N)N)NC(=O)[C@@H](CC(C)C)NC(=O)[C@H](C)N(C)C(=O)[C@H](C(C)C)NC(=O)[C@H](Cc2ccc(-c3ccccc3)cc2)NC(=O)[C@H](C(C)C)NC(=O)[C@H](Cc2c[nH]c3ccccc23)NC(=O)[C@H](CC(=O)O)NC(=O)[C@H](Cc2ccc(O)cc2)NC(=O)[C@H](CC(N)=O)NC(=O)CSC[C@@H](C(=O)N[C@@H](C)C(N)=O)NC(=O)[C@H]([C@@H](C)O)NC(=O)[C@H](C(C)C)NC1=O` [Compound 1216] ({CH2CO}-NYDWV[Bip]V[NMeA][dL]RLVTCA-NH2; thioether N-14) the value was 0.03 µM.

These data come from patent US20240409585A1, “MACROCYCLIC IMMUNOMODULATORS” (priority 2021, published 2024).
